Source: ChEMBL document CHEMBL1143329, “Discovery and SAR of benzyl phenyl ethers as inhibitors of bacterial phenylalanyl-tRNA synthetase” (Bioorg Med Chem Lett, 2009)
In brackets after ≈: the same amount, converted by molar mass.

What was measured:
[1] = Inhibition of Haemophilus influenzae phenylalanyl-tRNA synthetase
[2] = Inhibition of Streptococcus pneumoniae phenylalanyl-tRNA synthetase
[3] = Apparent intrinsic clearance in human liver microsomes; assay type: ADME, Microsome
[4] = Membrane permeability by PAMPA; assay type: ADME; details: for Papp: read-out: Activity
[5] = target: Voltage-gated inwardly rectifying potassium channel KCNH2 (Homo sapiens, UniProt Q12809); test: Displacement of [3H]dofetilide from human ERG channel
Chain of Voltage-gated inwardly rectifying potassium channel KCNH2 (Q12809 whole entry): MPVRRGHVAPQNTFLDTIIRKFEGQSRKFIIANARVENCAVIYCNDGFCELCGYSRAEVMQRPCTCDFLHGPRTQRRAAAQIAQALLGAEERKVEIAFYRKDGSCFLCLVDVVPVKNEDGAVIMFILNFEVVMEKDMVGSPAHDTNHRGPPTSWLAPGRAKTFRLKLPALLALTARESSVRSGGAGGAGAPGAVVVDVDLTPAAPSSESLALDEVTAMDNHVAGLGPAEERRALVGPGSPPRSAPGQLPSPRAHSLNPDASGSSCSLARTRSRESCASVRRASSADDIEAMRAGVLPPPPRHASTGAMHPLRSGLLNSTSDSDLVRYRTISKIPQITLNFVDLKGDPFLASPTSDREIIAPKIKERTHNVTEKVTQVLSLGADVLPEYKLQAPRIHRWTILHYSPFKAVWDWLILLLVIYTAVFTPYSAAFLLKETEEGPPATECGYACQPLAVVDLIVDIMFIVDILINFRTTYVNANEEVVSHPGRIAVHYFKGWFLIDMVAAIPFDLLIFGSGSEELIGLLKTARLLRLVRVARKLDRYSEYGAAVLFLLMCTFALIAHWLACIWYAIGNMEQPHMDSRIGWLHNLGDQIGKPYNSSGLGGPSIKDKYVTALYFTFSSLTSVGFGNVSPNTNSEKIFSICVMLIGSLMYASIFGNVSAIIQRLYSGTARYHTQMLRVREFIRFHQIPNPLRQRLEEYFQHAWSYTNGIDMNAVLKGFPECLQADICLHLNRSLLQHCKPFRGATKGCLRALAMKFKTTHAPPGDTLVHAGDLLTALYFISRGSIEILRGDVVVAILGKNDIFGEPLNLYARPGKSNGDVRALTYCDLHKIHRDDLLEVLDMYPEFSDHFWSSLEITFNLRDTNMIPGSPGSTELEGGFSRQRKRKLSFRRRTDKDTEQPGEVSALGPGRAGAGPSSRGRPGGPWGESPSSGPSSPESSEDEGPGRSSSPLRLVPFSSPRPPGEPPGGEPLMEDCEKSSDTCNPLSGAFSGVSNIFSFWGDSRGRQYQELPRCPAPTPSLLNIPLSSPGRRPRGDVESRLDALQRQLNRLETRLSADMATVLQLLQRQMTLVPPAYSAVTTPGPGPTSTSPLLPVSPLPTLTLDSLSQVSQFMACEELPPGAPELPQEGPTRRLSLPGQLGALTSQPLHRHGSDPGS

Cytochrome P450 1A2 = target: T1, Cytochrome P450 1A2 (Homo sapiens, UniProt P05177); test: (§1) Inhibition of human CYP1A2 at 3 uM; assay type: ADME; details: 3 µM
T1 sequence (P05177 whole entry): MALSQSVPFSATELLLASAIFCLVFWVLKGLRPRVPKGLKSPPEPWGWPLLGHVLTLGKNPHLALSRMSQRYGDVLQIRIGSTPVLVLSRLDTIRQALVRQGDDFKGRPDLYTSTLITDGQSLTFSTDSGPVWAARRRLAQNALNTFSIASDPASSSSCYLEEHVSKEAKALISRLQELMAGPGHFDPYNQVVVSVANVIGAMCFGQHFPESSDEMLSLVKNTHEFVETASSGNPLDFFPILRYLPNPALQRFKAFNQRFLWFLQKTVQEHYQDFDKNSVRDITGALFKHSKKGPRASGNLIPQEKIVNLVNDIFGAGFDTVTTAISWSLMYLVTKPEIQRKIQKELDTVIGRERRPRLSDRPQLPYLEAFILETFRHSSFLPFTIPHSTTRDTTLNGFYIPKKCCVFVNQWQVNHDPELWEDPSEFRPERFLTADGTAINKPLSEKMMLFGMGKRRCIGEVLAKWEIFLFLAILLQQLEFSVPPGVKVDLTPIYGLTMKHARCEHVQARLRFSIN

Cytochrome P450 2C9 = Cytochrome P450 2C9 (Homo sapiens, UniProt P11712); test: Inhibition of human CYP2C9 at 3 uM; assay type: ADME
Chain of Cytochrome P450 2C9 (P11712 whole entry): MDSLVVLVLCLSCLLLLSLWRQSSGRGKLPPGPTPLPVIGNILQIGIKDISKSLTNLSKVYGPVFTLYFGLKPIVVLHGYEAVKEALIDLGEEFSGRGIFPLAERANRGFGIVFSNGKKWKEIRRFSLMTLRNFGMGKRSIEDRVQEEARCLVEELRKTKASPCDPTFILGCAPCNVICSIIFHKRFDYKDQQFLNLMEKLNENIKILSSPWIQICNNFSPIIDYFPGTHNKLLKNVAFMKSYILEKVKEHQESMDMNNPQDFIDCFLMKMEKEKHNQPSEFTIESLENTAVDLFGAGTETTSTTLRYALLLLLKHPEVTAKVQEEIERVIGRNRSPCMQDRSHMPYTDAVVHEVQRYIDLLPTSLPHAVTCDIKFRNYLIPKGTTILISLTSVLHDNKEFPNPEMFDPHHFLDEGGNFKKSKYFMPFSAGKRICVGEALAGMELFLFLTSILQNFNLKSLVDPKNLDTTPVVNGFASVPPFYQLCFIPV

Cytochrome P450 2D6 = Cytochrome P450 2D6 (Homo sapiens, UniProt P10635); test: Inhibition of human CYP2D6 at 3 uM; assay type: ADME
Chain of Cytochrome P450 2D6 (P10635 whole entry): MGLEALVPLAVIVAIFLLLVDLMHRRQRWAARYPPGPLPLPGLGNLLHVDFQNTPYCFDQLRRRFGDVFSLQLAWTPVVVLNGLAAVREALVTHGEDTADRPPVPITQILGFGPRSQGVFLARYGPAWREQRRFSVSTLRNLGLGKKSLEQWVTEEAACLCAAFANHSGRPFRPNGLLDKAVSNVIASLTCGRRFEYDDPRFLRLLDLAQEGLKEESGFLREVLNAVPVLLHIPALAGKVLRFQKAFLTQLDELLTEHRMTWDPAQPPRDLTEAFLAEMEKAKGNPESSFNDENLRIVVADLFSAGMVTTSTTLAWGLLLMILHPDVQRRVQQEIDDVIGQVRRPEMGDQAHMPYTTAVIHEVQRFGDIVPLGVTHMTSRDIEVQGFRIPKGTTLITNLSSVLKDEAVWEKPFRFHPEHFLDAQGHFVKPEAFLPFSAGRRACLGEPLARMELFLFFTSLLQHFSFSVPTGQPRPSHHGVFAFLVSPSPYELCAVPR

Cytochrome P450 3A4 = Cytochrome P450 3A4 (Homo sapiens, UniProt P08684); test: Inhibition of human CYP3A4 at 3 uM; assay type: ADME
Chain of Cytochrome P450 3A4 (P08684 whole entry): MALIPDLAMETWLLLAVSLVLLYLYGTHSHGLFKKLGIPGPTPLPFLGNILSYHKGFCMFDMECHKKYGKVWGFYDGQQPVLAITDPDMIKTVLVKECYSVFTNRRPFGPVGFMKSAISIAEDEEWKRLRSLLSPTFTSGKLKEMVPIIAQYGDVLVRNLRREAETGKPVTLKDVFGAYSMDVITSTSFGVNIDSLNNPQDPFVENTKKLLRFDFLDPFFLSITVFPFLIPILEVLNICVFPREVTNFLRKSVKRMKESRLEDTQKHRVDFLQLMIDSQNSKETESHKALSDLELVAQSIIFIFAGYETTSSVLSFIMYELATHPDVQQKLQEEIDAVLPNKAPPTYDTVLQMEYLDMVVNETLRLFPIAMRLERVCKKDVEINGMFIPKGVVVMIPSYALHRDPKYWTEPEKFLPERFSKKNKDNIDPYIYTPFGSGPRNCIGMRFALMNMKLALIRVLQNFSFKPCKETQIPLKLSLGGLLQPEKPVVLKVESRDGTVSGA

Haemophilus influenzae [6] = test: Antibacterial activity against AcrA pump deficient Haemophilus influenzae; assay type: functional
Haemophilus influenzae [7] = test: Antibacterial activity against wild type Haemophilus influenzae; assay type: functional
Streptococcus pneumoniae = test: Antibacterial activity against wild type Streptococcus pneumoniae; assay type: functional
CYP1A2 = target: T2, CYP1A2 (Homo sapiens, UniProt P05177); test: as §1; assay type: ADME; details: read-out: Activity
T2 sequence (P05177 whole entry): T1 sequence (P05177 whole entry)

hERG (KCNH2) = hERG (KCNH2) (Homo sapiens, UniProt Q12809); test: Displacement of [3H]dofetilide from human ERG channel at 10 nM; details: probe [3H]dofetilide, read-out: Activity
Chain of hERG (KCNH2) (Q12809 whole entry): as the sequence (Q12809 whole entry) above

Row | IC50 [1] | IC50 [2] | Structure (SMILES) | further results
1 | 1300 nM | 28 µM | CC(=O)Nc1nnc(-c2ccc(OCc3cccc(Cl)c3)c(Cl)c2)o1 | –
2 | 3500 nM | 6.1 µM | COC(=O)c1ccc(NCc2cccc(Cl)c2)c(C)c1 | –
3 | 34 nM | 0.097 µM | COC(=O)c1ccc(OCc2cccc(Cl)c2)c(C)c1 | –
4 | 150 nM | 2.3 µM | CN1CCN(C(=O)c2ccc(OCc3cccc(Cl)c3)c(Cl)c2)CC1 | –
5 | 17 nM | 0.091 µM | COC(=O)c1ccc(OCc2cccc(Cl)c2)c(Cl)c1 | –
6 | 11000 nM | 156 µM | Clc1cccc(COc2ccc(-c3nnco3)cc2Cl)c1 | –
7 | 22000 nM | 254 µM | O=C(NCCCCO)c1ccc(OCc2cccc(Cl)c2)c(Cl)c1 | CLint scaled [3]: < 7.6 mL/min/kg; Papp [4]: 1.22 ×10⁻⁶ cm/s; Ki [5]: > 100 nM; Activity (Cytochrome P450 1A2): Not Active; Activity (Cytochrome P450 2C9): Not Active; Activity (Cytochrome P450 2D6): Not Active; Activity (Cytochrome P450 3A4): Not Active
8 | 1700 nM | 126 µM | NC(=O)Cc1nnc(-c2ccc(OCc3cccc(Cl)c3)c(Cl)c2)o1 | –
9 | 57000 nM | 393 µM | O=C(NCC1CC1)c1ccc(OCc2cccc(Cl)c2)c(Cl)c1 | –
10 | 6600 nM | 95 µM | Cc1nnc(-c2ccc(OCc3cccc(Cl)c3)c(Cl)c2)o1 | –
11 | 2300 nM | 42 µM | Nc1nnc(-c2ccc(OCc3cccc(Cl)c3)c(Cl)c2)o1 | –
12 | 30 nM | 0.16 µM | COC(=O)c1ccc(OCc2cc(F)cc(F)c2)c(Cl)c1 | –
13 | 14000 nM | 438 µM | O=C(NCCN1CCOCC1)c1ccc(OCc2cccc(Cl)c2)c(Cl)c1 | –
14 | 11000 nM | 110 µM | O=C(O)Cc1nnc(-c2ccc(OCc3cccc(Cl)c3)c(Cl)c2)o1 | –
15 | 29000 nM | 483 µM | CC(CO)NC(=O)c1ccc(OCc2cccc(Cl)c2)c(Cl)c1 (stereo unspecified) | MIC (Haemophilus influenzae [6]): 4 µg/mL (≈ 11.3 µM); MIC (Haemophilus influenzae [7]): > 32 µg/mL; MIC (Streptococcus pneumoniae): 32 µg/mL (≈ 90.3 µM)
16 | 3100 nM | 12 µM | COC(=O)c1ccc(OCc2cccc(Cl)c2)cc1 | –
17 | 2600 nM | 81 µM | NC(=O)c1nnc(-c2ccc(OCc3cccc(Cl)c3)c(Cl)c2)o1 | –
18 | 38 nM | 1.3 µM | CN1CCN(C(=O)c2ccc(OCc3cccc(Cl)c3)c(Cl)c2)CC1=O | CLint scaled [3]: < 7.6 mL/min/kg; Papp [4]: 16.4 ×10⁻⁶ cm/s; Ki [5]: 37.2 nM; Activity (Cytochrome P450 1A2): Not Active; Activity (Cytochrome P450 2C9): Not Active; Activity (Cytochrome P450 2D6): Not Active; Activity (Cytochrome P450 3A4): Not Active
19 | 8.7 nM | 0.12 µM | COC(=O)c1ccc(OCc2ccc(F)c(F)c2)c(Cl)c1 | –
20 | 170 nM | 3.5 µM | COC(=O)c1ccc(N(C)Cc2cccc(Cl)c2)c(C)c1 | –

The next lines start with the molecule.

Row | Structure (SMILES) | IC50 [1] | IC50 [2] | further results
21 | Cc1cc(C(=O)N2CCN(C(=O)C3CCCO3)CC2)ccc1CC(O)c1cccc(Cl)c1 (stereo unspecified) | 280 nM | 11 µM | –
22 | Cc1cc(C(=O)N2CCN(C(=O)C3CCCO3)CC2)ccc1OCc1cccc(Cl)c1 (stereo unspecified) | 67 nM | 3.7 µM | CLint scaled [3]: 55.1 mL/min/kg; Papp [4]: 10.8 ×10⁻⁶ cm/s; Ki [5]: 23.9 nM; Activity (Cytochrome P450 1A2): Not Active; Activity (Cytochrome P450 2C9): Not Active; Activity (Cytochrome P450 2D6): Not Active; Activity (Cytochrome P450 3A4): Not Active
23 | Cn1c(-c2cccc(Cl)c2)nc(=O)c2cc(C(=O)N3CCC(C(N)=O)CC3)ccc21 | > 64000 nM | > 64 µM | –
24 | O=C(NC1CCC(O)CC1)c1cc(Cl)c(OCc2cccc(Cl)c2)cn1 (stereo unspecified) | 1500 nM | 28 µM | –
25 | Cc1cc(C(=O)N2CCN(C)C(=O)C2)ccc1NS(=O)(=O)c1cccc(Cl)c1 | > 64000 nM | > 64 µM | –
26 | O=C(NCCCCO)c1ccc(OCc2cc(Cl)ccn2)c(Cl)c1 | 16000 nM | 34 µM | –
27 | COC(=O)c1ccc(CN(C)c2cccc(Cl)c2)cc1 | > 64000 nM | > 64 µM | –
28 | COC(=O)c1ccc(NC(=O)c2cccc(Cl)c2)c(C)c1 | > 64000 nM | > 64 µM | –
29 | COC(=O)c1ccc([C@@H](O)[C@H](O)c2cccc(Cl)c2)c(C)c1 | > 64000 nM | > 64 µM | –
30 | CS(=O)(=O)c1nnc(-c2ccc(OCc3cccc(Cl)c3)c(Cl)c2)o1 | 2100 nM | 53 µM | MIC (Haemophilus influenzae [6]): 1 µg/mL (≈ 2.5 µM); MIC (Haemophilus influenzae [7]): 32 µg/mL (≈ 80.1 µM); MIC (Streptococcus pneumoniae): > 32 µg/mL
31 | CC(CO)NC(=O)c1ccc(OCc2cc(Cl)ccn2)c(Cl)c1 (stereo unspecified) | 4600 nM | 43 µM | MIC (Haemophilus influenzae [6]): 2 µg/mL (≈ 5.63 µM); MIC (Haemophilus influenzae [7]): 32 µg/mL (≈ 90.1 µM); MIC (Streptococcus pneumoniae): 32 µg/mL (≈ 90.1 µM)
32 | Cc1cc(C(=O)N2CCC(C(N)=O)CC2)ccc1CCc1cccc(Cl)c1 | 360 nM | 46 µM | –
33 | CCN(CC)CCN(C)S(=O)(=O)c1ccc(OCc2cccc(Cl)c2)c(Cl)c1 | 1900 nM | 79 µM | –
34 | Nc1nnc(-c2cc(Cl)c(OCc3cccc(Cl)c3)cn2)o1 | – | 50 µM | –
35 | CN1CCN(C(=O)c2ccc(COc3cccc(Cl)c3)c(Cl)c2)CC1 | 840 nM | – | –
36 | O=C(NCCN1CCOCC1)c1cc(Cl)c(OCc2cccc(Cl)c2)cn1 | 8000 nM | 65 µM | MIC (Haemophilus influenzae [6]): 1 µg/mL (≈ 2.44 µM); MIC (Haemophilus influenzae [7]): 32 µg/mL (≈ 78 µM); MIC (Streptococcus pneumoniae): 8 µg/mL (≈ 19.5 µM)
37 | COC(=O)c1ccc(CNc2cccc(Cl)c2)cc1 | 57000 nM | > 64 µM | –
38 | CN1CCN(C(=O)c2ccc(C[S+]([O-])c3cccc(Cl)c3)c(Cl)c2)CC1=O (stereo unspecified) | 2400 nM | 23 µM | –

Row | Structure (SMILES) | IC50 [1] | IC50 [2] | further results
39 | Clc1cccc(COc2cnc(-c3nnco3)cc2Cl)c1 | 12000 nM | 97 µM | CLint scaled [3]: < 10.1 mL/min/kg; Papp [4]: 5.31 ×10⁻⁶ cm/s; inhibition at 3 µM (CYP1A2): 38%
40 | OCCc1nnc(-c2ccc(OCc3cccc(Cl)c3)c(Cl)c2)o1 | 3100 nM | 87 µM | –
41 | CN1CCN(C(=O)c2ccc(S(=O)(=O)Nc3cccc(Cl)c3)c(Cl)c2)CC1=O | > 64000 nM | > 64 µM | –
42 | CCc1nnc(-c2ccc(OCc3cccc(Cl)c3)c(Cl)c2)o1 | 11000 nM | 76 µM | –
43 | C[S+]([O-])c1nnc(-c2ccc(OCc3cccc(Cl)c3)c(Cl)c2)o1 (stereo unspecified) | 1500 nM | 36 µM | –
44 | Cc1cc(C(=O)N2CCC(C(N)=O)CC2)ccc1OCc1cccc(Cl)c1 | 150 nM | – | –
45 | CCn1nccc1NC(=O)c1cc(Cl)c(OCc2cccc(Cl)c2)cn1 | 24000 nM | 34 µM | –
46 | COC(=O)c1ccc(C(=O)Nc2cccc(Cl)c2)cc1 | > 64000 nM | > 64 µM | –
47 | CSc1nnc(-c2ccc(OCc3cccc(Cl)c3)c(Cl)c2)o1 | 5500 nM | 81 µM | –
48 | COC(=O)c1ccc(/C=C/c2cccc(Cl)c2)c(C)c1 | 130 nM | 0.2 µM | –
49 | Cc1ccc(C(=O)N2CCN(S(=O)(=O)c3ccc(OCc4cccc(Cl)c4)c(Cl)c3)CC2)cc1 | 1900 nM | 12 µM | –
50 | NC(=O)c1nnc(-c2cc(Cl)c(OCc3cccc(Cl)c3)cn2)o1 | 2700 nM | 60 µM | –
51 | COC(=O)c1ccc([C@H](O)[C@@H](O)c2cccc(Cl)c2)c(C)c1 | 6500 nM | > 64 µM | –
52 | Cc1cc(C(=O)N2CCN(C)CC2)ccc1C(CO)c1cccc(Cl)c1 (stereo unspecified) | > 64000 nM | > 64 µM | –
53 | O=C(NCC1CC1)c1cc(Cl)c(OCc2cccc(Cl)c2)cn1 | 30000 nM | 50 µM | –
54 | CN1CCN(C(=O)c2ccc(CS(=O)(=O)c3cccc(Cl)c3)c(Cl)c2)CC1=O | > 64000 nM | > 64 µM | –
55 | CC(=O)NC1CCN(Cc2ccc(OCc3ccc(Cl)cc3)c(Cl)c2)C1 (stereo unspecified) | 240 nM | 2.2 µM | CLint scaled [3]: 9.63 mL/min/kg; Activity [4]: Not Active; inhibition at 0.01 µM (hERG (KCNH2)): 89%
